Measured values taken from PMC8850444, “The lipid components of high-density lipoproteins (HDL) are essential for the binding and transportation of antimicrobial peptides in human serum” (Scientific Reports, 2022).

Columns and labels:
[1] = test system: Escherichia coli K-12 (MG1655); format: cell-based; details: for repression of antimicrobial activity by human serum: E. coli 10^6 cfu/ml, 5% human serum (v/v) compared with PBS, mean ± SD n = 3
Method: The Gram-negative bacteria Escherichia coli K-12 (MG1655) was cultured and plated in/on Luria–Bertani broth/agar plate (Merck Millipore, Darmstadt, Germany). The bacteria were grown overnight, washed, and diluted 1:2000 in phosphate buffered saline (PBS), pH 7.4. Bacteria (ca. 1 × 10^6 colony-forming units, cfu/ml) was mixed with antimicrobial peptides (AMP) in 100 µl PBS and incubated at 37 °C. Serial dilutions of each AMP-treated bacteria in the presence of human sera, proteins or lipids were prepared and plated for determination of remaining viable cells (expressed as cfu). At least three independent experiments were performed for each assay to determine the mean value with standard deviation (SD)[31].
For all in vitro antimicrobial assays, the average value with standard deviation (SD) was determined from at least three independent experiments. Mann–Whitney test and Kruskal–Wallis tests were performed to determine the significance. For lipid quantification, the average value with standard deviation (SD) was determined from at least three independent experiments and One-way ANOVA test was performed to determine the significance of the difference in the measured values. P < 0.05 was considered to be statistically significant.

human albumin = details: cited from earlier work
human serum = test: Band shift of AMPs in human serum on horizontal native PAGE; format: binding; details: AMP 4 µg in 10 µl diluted human serum, 5–40% (v/v), 8% horizontal native PAGE, Coomassie blue
Method: (§1) Various AMPs (4 µg each) were incubated with human serum, isolated components or lipid at the indicated concentrations at room temperature in 10 µl PC buffer (20 mM HEPES, pH7.4, 50 mM NaCl) for 30 min, subjected to horizontal native 8% polyacrylamide gel electrophoreses (PAGE), pH8.0/pH8.8, and stained with Coomassie Blue.

HDL = test: Band shift of AMPs by HDL on horizontal native PAGE; format: binding, human; details: AMP 4 µg, agents 10 µg or lipids 4 µg in BSA, 8% horizontal native PAGE
Method: as §1

## CC[C@H](C)[C@H](NC(=O)[C@H](CCCCN)NC(=O)[C@H](CCC(=O)O)NC(=O)[C@H](CCCCN)NC(=O)[C@H](CO)NC(=O)[C@H](CCCCN)NC(=O)[C@H](CCCNC(=N)N)NC(=O)[C@H](Cc1ccccc1)NC(=O)[C@H](Cc1ccccc1)NC(=O)[C@H](CC(=O)O)NC(=O)CNC(=O)[C@H](CC(C)C)NC(=O)[C@@H](N)CC(C)C)C(=O)NCC(=O)N[C@@H](CCCCN)C(=O)N[C@@H](CCC(=O)O)C(=O)N[C@@H](Cc1ccccc1)C(=O)N[C@@H](CCCCN)C(=O)N[C@@H](CCCNC(=N)N)C(=O)N[C@H](C(=O)N[C@H](C(=O)N[C@@H](CCC(N)=O)C(=O)N[C@@H](CCCNC(=N)N)C(=O)N[C@H](C(=O)N[C@@H](CCCCN)C(=O)N[C@@H](CC(=O)O)C(=O)N[C@@H](Cc1ccccc1)C(=O)N[C@@H](CC(C)C)C(=O)N[C@@H](CCCNC(=N)N)C(=O)N[C@@H](CC(N)=O)C(=O)N[C@@H](CC(C)C)C(=O)N[C@H](C(=O)N1CCC[C@H]1C(=O)N[C@@H](CCCNC(=N)N)C(=O)N[C@H](C(=O)N[C@@H](CCC(=O)O)C(=O)N[C@@H](CO)C(=O)O)[C@@H](C)O)C(C)C)[C@@H](C)CC)C(C)C)[C@@H](C)CC [LL37]
[1]; E. coli, cfu counting, 5% human serum, LC99 = lowest AMP concentration that kills 99% of the original inoculum, 37 °C
  LC99 in 5% human serum: > 512 mg/L
[1]; E. coli, cfu counting, PBS pH 7.4, LC99 = lowest AMP concentration that kills 99% of the original inoculum, 37 °C
  LC99 in PBS: 16 mg/L

## CC(=O)CC(c1ccccc1)c1c(O)c2ccccc2oc1=O (centres unmarked) [warfarin]
Human albumin; human albumin drug binding site I (warfarin) and site II (ibuprofen)
  fraction bound to human albumin: more than 90%

## Pleurocidin: antimicrobial peptide from Pleuronectes amertcanus (GWGSFFKKAAHVGKHVGKAALTHYL)
[1]
  repression of antimicrobial activity by human serum: not at all observed
[1]; E. coli, LC99 in 5% human serum versus PBS
  fold increase of LC99 in 5% human serum over PBS: one
[1]; E. coli, NRC12 16 mg/L, Pleurocidin 8 mg/L
  bactericidal activity in presence of purified S50, E5, Apo-AI, PC, SM, CO and HDL: resistant
Human serum
  band shift of AMP in human serum: not shifted
HDL
  band shift by purified S50, E5, Apo-AI, PC, SM, CO and HDL: resistant

## Polymyxin B
[1]
  repression of antimicrobial activity by human serum: not at all observed
Human serum
  band shift of AMP in human serum: not shifted

## daptomycin
Human albumin; human serum
  fraction bound and inhibited by albumin: 90–94%
